According to BindingDB's records for doi:10.1021/jm00384a019 (1987):
pKi: −log10 of the molar value.

target: DNA polymerase alpha (Cricetulus griseus); experiment: Compound was evaluated for the concentration which gives half-maximal inhibition of Chinese Hamster Ovary DNA polymerase alpha

pKi	Compound
5.59	CCCCc1ccc(Nc2nc(Cl)c3[nH]cnc3n2)cc1 [(4-Butyl-phenyl)-(6-chloro-9H-purin-2-yl)-amine]
5.85	CCCCc1ccc(Nc2nc(OC)c3[nH]cnc3n2)cc1 [(4-Butyl-phenyl)-(6-methoxy-9H-purin-2-yl)-amine]
6.00	CCCCc1ccc(Nc2nc(SC)c3[nH]cnc3n2)cc1 [(4-Butyl-phenyl)-(6-methylsulfanyl-9H-purin-2-yl)-amine]
5.30	CCCCc1ccc(Nc2ncc3[nH]cnc3n2)cc1 [(4-Butyl-phenyl)-(9H-purin-2-yl)-amine]
4.84	CCCCc1ccc(Nc2nc(N)c3[nH]cnc3n2)cc1 [N*2*-(4-Butyl-phenyl)-9H-purine-2,6-diamine]
